Laboratory results: patent US20250144067A1, “PERSONALIZED STARVATION THERAPY FOR CANCER” (Faeth Therapeutics, Inc., priority 2021, published 2025)
Counter-ions that a name gives are not always drawn. Like-named read-outs stand apart in the source and are kept apart here.

How the values were obtained:
[1] = tested on: NCI-H292 lung cancer cells; experiment: FDA drug screening, complete media vs cholesterol-free media without statin (TABLE 1); type: cell-based, human
[2] = tested on: NCI-H292 lung cancer cells; experiment: FDA drug screening, complete media vs cholesterol-free media with simvastatin (TABLE 2); type: cell-based, human
[3] = Complete minus Cholesterol-free, >0 enhanced anti-cancer activity, about 0 neutral, <0 antagonist
[4] = NCI-H292 cells, cholesterol-free media without statin
[5] = NCI-H292 cells, FDA library drug in cholesterol-free media with simvastatin 0.04 μM
[6] = NCI-H292 cells, FDA library drug in complete media
[7] = complete media vs cholesterol-free media + simvastatin (0.04 μM), >0 enhanced anti-cancer activity, about 0 neutral, <0 antagonist
[8] = Complete minus Cholesterol-free, greater than 0 enhanced anti-cancer activity, about 0 neutral, below 0 antagonists
[9] = NCI-H292 cells in cholesterol-free media without statin
[10] = NCI-H292 cells in complete media
[11] = NCI-H292 cells, FDA drug library screen, cholesterol-free media with simvastatin 0.04 μM
[12] = NCI-H292 cells, FDA drug library screen, complete media
[13] = complete media minus cholesterol-free media + simvastatin, >0 enhanced anti-cancer activity, about 0 neutral, <0 antagonist
[14] = NCI-H292 cells, cholesterol-free media without statin, FDA drug library screen
[15] = NCI-H292 cells, complete media, FDA drug library screen
[16] = complete vs cholesterol-free media, >0 enhanced anti-cancer activity, about 0 neutral, <0 antagonist
[17] = NCI-H292 cells, drug in cholesterol-free media with simvastatin 0.04 μM
[18] = NCI-H292 cells, drug in complete media
[19] = complete vs cholesterol-free media, greater than 0 enhanced anti-cancer activity, about 0 neutral, below 0 antagonists
[20] = NCI-H292 cells, cholesterol-free media with simvastatin 0.04 μM, FDA drug library screen (TABLE 2)
[21] = NCI-H292 cells, complete media, FDA drug library screen (TABLE 2)
[22] = complete media minus cholesterol-free media + simvastatin (0.04 μM), >0 enhanced anti-cancer activity, about 0 neutral, <0 antagonist
[23] = Complete minus Cholesterol-free, greater than 0 enhanced anti-cancer activity, about 0 neutral, below 0 antagonist
[24] = NCI-H292 cells, FDA drug library screen, cholesterol-free media without statin
[25] = NCI-H292 cells, cholesterol-free media with simvastatin 0.04 μM, cell growth value in FDA drug screen
[26] = NCI-H292 cells, complete media, cell growth value in FDA drug screen

COc1ccccc1N1CCN(CCCNc2cc(=O)n(C)c(=O)n2C)CC1 [Urapidil (hydrochloride)]
Difference [1, 3]: −0.28
Cholesterol-free [1, 4]: 1.01
Complete ([1]; NCI-H292 cells, complete media): 0.7335
Cholesterol-free media + simvastatin (0.04 μM) [2, 5]: 1.22
Complete Media [2, 6]: 0.87
Difference [2, 7]: −0.35

COc1ccccc1N1CCN(CCCNc2cc(=O)n(C)c(=O)n2C)CC1 [Urapidil]
Difference [1, 8]: −0.56
Cholesterol-free [1, 9]: 1.658
Complete [1, 10]: 1.095
Cholesterol-free media + simvastatin (0.04 μM) [2, 11]: 1.097
Complete Media [2, 12]: 1.271
Difference [2, 13]: 0.17

NC(N)=O [Urea]
Difference [1, 3]: −0.20
Cholesterol-free [1, 4]: 1.334
Complete ([1]; NCI-H292 cells, complete media): 1.138
Cholesterol-free media + simvastatin (0.04 μM) [2, 5]: 1.928
Complete Media [2, 6]: 1.641
Difference [2, 7]: −0.29

CC(=O)OC[C@H]1O[C@@H](n2ccc(=O)[nH]c2=O)[C@H](OC(C)=O)[C@@H]1OC(C)=O [Uridine triacetate]
Cholesterol-free [1, 14]: 1.055
Complete [1, 15]: 1.37
Difference [1, 16]: 0.32
Cholesterol-free media + simvastatin (0.04 μM) [2, 17]: 1.076
Complete Media [2, 18]: 0.8641
Difference [2, 7]: −0.21

O=c1ccn([C@@H]2O[C@H](CO)[C@@H](O)[C@H]2O)c(=O)[nH]1 [Uridine]
Difference [1, 3]: −0.19
Cholesterol-free [1, 4]: 1.404
Complete ([1]; NCI-H292 cells, complete media): 1.215
Cholesterol-free media + simvastatin (0.04 μM) [2, 5]: 1.294
Complete Media [2, 6]: 1.006
Difference [2, 7]: −0.29

C[C@H](CCC(=O)O)[C@H]1CC[C@H]2[C@@H]3[C@@H](O)C[C@@H]4C[C@H](O)CC[C@]4(C)[C@H]3CC[C@]12C [Ursodiol]
Cholesterol-free [1, 4]: 1.392
Complete ([1]; NCI-H292 cells, complete media): 0.9832
Difference [1, 19]: −0.41
Cholesterol-free media + simvastatin (0.04 μM) [2, 11]: 1.413
Complete Media [2, 12]: 1.314
Difference [2, 7]: −0.10

O[C@H]([C@H](O)[C@@H]1CO1)[C@H]1CO1 [VAL-083]
Cholesterol-free [1, 4]: 1.036
Complete ([1]; NCI-H292 cells, complete media): 0.6339
Difference ([1]; complete vs cholesterol-free media, […]): −0.40
Cholesterol-free media + simvastatin (0.04 μM) [2, 17]: 0.879
Complete Media [2, 18]: 0.7017
Difference ([2]; complete media vs cholesterol-free media + simvastatin (0.04 μM), […]): −0.18

O=C(O)C[C@@H]1CC[C@H](NC(=O)Cc2cccs2)B(O)O1 [Vaborbactam]
Difference [1, 3]: 0.06
Cholesterol-free [1, 14]: 0.9017
Complete [1, 15]: 0.9648
Cholesterol-free media + simvastatin (0.04 μM) [2, 20]: 0.8544
Complete Media [2, 21]: 0.8532
Difference [2, 22]: 0.00

CC(C)[C@H](N)C(=O)OCCOCn1cnc2c(=O)[nH]c(N)nc21 [Valacyclovir (hydrochloride)]
Cholesterol-free [1, 4]: 1.143
Complete ([1]; NCI-H292 cells, complete media): 0.7981
Difference [1, 19]: −0.34
Cholesterol-free media + simvastatin (0.04 μM) [2, 11]: 0.9432
Complete Media [2, 12]: 1.26
Difference [2, 13]: 0.32

COc1cc2c(cc1OC)[C@H]1C[C@@H](OC(=O)[C@@H](N)C(C)C)[C@H](CC(C)C)CN1CC2 [Valbenazine]
Difference [1, 23]: −0.16
Cholesterol-free [1, 24]: 1.298
Complete [1, 12]: 1.135
Cholesterol-free media + simvastatin (0.04 μM) [2, 5]: 1.305
Complete Media [2, 6]: 1.011
Difference [2, 7]: −0.29

Cc1onc(-c2ccccc2)c1-c1ccc(S(N)(=O)=O)cc1 [Valdecoxib]
Difference [1, 3]: 0.02
Cholesterol-free [1, 14]: 0.9021
Complete [1, 15]: 0.9224
Cholesterol-free media + simvastatin (0.04 μM) [2, 25]: 0.9234
Complete Media [2, 26]: 0.9538
Difference [2, 13]: 0.03

CC(C)[C@H](N)C(=O)OCC(CO)OCn1cnc2c(=O)nc(N)[nH]c21 (stereo partly drawn) [Valganciclovir (hydrochloride)]
Difference [1, 3]: −0.03
Cholesterol-free [1, 14]: 1.042
Complete [1, 15]: 1.007
Cholesterol-free media + simvastatin (0.04 μM) [2, 11]: 0.9599
Complete Media [2, 12]: 1.178
Difference [2, 13]: 0.22

CCCC(CCC)C(=O)O [Valproic acid (sodium salt)]
Difference [1, 3]: −0.26
Cholesterol-free [1, 4]: 0.9818
Complete ([1]; NCI-H292 cells, complete media): 0.7267
Cholesterol-free media + simvastatin (0.04 μM) [2, 17]: 0.961
Complete Media [2, 18]: 0.7238
Difference [2, 7]: −0.24

CCCC(CCC)C(=O)O [Valproic acid]
Difference [1, 3]: −0.29
Cholesterol-free [1, 4]: 0.957
Complete ([1]; NCI-H292 cells, complete media): 0.6641
Cholesterol-free media + simvastatin (0.04 μM) [2, 17]: 1.017
Complete Media [2, 18]: 0.7948
Difference [2, 7]: −0.22

CCCC(CCC)C(N)=O [Valpromide]
Difference [1, 3]: −0.27
Cholesterol-free [1, 4]: 1.075
Complete ([1]; NCI-H292 cells, complete media): 0.8044
Cholesterol-free media + simvastatin (0.04 μM) [2, 11]: 1.404
Complete Media [2, 12]: 1.717
Difference [2, 13]: 0.31

CCCCC(=O)OCC(=O)[C@]1(O)Cc2c(O)c3c(c(O)c2[C@@H](O[C@H]2C[C@H](NC(=O)C(F)(F)F)[C@H](O)[C@H](C)O2)C1)C(=O)c1c(OC)cccc1C3=O [Valrubicin]
Difference [1, 3]: 0.02
Cholesterol-free [1, 14]: 0.04622
Complete [1, 15]: 0.06624
Cholesterol-free media + simvastatin (0.04 μM) [2, 25]: 0.07499
Complete Media [2, 26]: 0.1845
Difference [2, 13]: 0.11

CCCCC(=O)N(Cc1ccc(-c2ccccc2-c2nnn[nH]2)cc1)[C@H](C(=O)O)C(C)C [Valsartan]
Difference [1, 23]: −0.09
Cholesterol-free [1, 24]: 0.8984
Complete [1, 12]: 0.8065
Cholesterol-free media + simvastatin (0.04 μM) [2, 17]: 1.056
Complete Media [2, 18]: 0.8568
Difference [2, 7]: −0.20

CN[C@H](CC(C)C)C(=O)N[C@H]1C(=O)N[C@@H](CC(N)=O)C(=O)N[C@H]2C(=O)N[C@H]3C(=O)N[C@H](C(=O)N[C@H](C(=O)O)c4cc(O)cc(O)c4-c4cc3ccc4O)[C@H](O)c3ccc(c(Cl)c3)Oc3cc2cc(c3O[C@@H]2O[C@H](CO)[C@@H](O)[C@H](O)[C@H]2O[C@H]2C[C@](C)(N)[C@H](O)[C@H](C)O2)Oc2ccc(cc2Cl)[C@H]1O [Vancomycin (hydrochloride)]
Cholesterol-free [1]: 0.8305
Complete [1]: 0.7537
Difference [1]: −0.08
Cholesterol-free media + simvastatin (0.04 μM) [2]: 0.8152
Complete Media [2]: 0.7422
Difference [2]: −0.07

COc1cc2c(Nc3ccc(Br)cc3F)ncnc2cc1OCC1CCN(C)CC1 [Vandetanib]
Cholesterol-free [1, 14]: 0.1902
Complete [1, 15]: 0.3633
Difference [1, 16]: 0.17
Cholesterol-free media + simvastatin (0.04 μM) [2, 11]: 0.4174
Complete Media [2, 12]: 0.7391
Difference [2, 13]: 0.32

COc1cc(C=O)ccc1O [Vanillin]
Cholesterol-free [1, 14]: 0.7241
Complete [1, 15]: 0.863
Difference [1, 16]: 0.14
Cholesterol-free media + simvastatin (0.04 μM) [2, 20]: 1.042
Complete Media [2, 21]: 1.057
Difference [2, 22]: 0.02

CCCc1nc(C)c2c(=O)[nH]c(-c3cc(S(=O)(=O)N4CCN(CC)CC4)ccc3OCC)nn12 [Vardenafil (hydrochloride)]
Cholesterol-free [1, 4]: 1.352
Complete ([1]; NCI-H292 cells, complete media): 0.985
Difference [1, 19]: −0.37
Cholesterol-free media + simvastatin (0.04 μM) [2, 25]: 1.201
Complete Media [2, 26]: 1.248
Difference [2, 13]: 0.05

c1cnc2cc3c(cc2n1)[C@@H]1CNC[C@H]3C1 [Varenicline (Hydrochloride)]
Difference [1, 3]: −0.20
Cholesterol-free [1, 4]: 1.095
Complete ([1]; NCI-H292 cells, complete media): 0.8911
Cholesterol-free media + simvastatin (0.04 μM) [2, 17]: 1.193
Complete Media [2, 18]: 0.9876
Difference [2, 7]: −0.21

c1cnc2cc3c(cc2n1)[C@@H]1CNC[C@H]3C1 [Varenicline]
Difference [1, 8]: −0.54
Cholesterol-free [1, 9]: 1.353
Complete [1, 10]: 0.8146
Cholesterol-free media + simvastatin (0.04 μM) [2, 5]: 1.359
Complete Media [2, 6]: 1.033
Difference [2, 7]: −0.33

CC(=O)O[C@H]1C[C@@H]2CC[C@@H]3[C@H](CC[C@@]4(C)[C@H]3C[C@H]([N+]3(C)CCCCC3)[C@@H]4OC(C)=O)[C@@]2(C)C[C@@H]1N1CCCCC1.[Br-] [Vecuronium (bromide)]
Cholesterol-free [1]: 1.045
Complete [1]: 0.9438
Difference [1]: −0.10
Cholesterol-free media + simvastatin (0.04 μM) [2]: 0.9802
Complete Media [2]: 0.9534
Difference [2]: −0.03

COC[C@H]1C[C@@H](c2nc(-c3ccc4c(c3)COc3cc5c(ccc6nc([C@@H]7CC[C@H](C)N7C(=O)[C@@H](NC(=O)OC)C(C)C)[nH]c65)cc3-4)c[nH]2)N(C(=O)[C@H](NC(=O)OC)c2ccccc2)C1 [Velpatasvir]
Difference [1, 3]: −0.30
Cholesterol-free [1, 4]: 1.014
Complete ([1]; NCI-H292 cells, complete media): 0.7173
Cholesterol-free media + simvastatin (0.04 μM) [2, 25]: 0.7455
Complete Media [2, 26]: 0.7768
Difference [2, 13]: 0.03

CCCS(=O)(=O)Nc1ccc(F)c(C(=O)c2c[nH]c3ncc(-c4ccc(Cl)cc4)cc23)c1F [Vemurafenib]
Cholesterol-free [1, 14]: 0.6442
Complete [1, 15]: 1.257
Difference [1, 16]: 0.61
Cholesterol-free media + simvastatin (0.04 μM) [2, 11]: 0.8006
Complete Media [2, 12]: 0.9559
Difference [2, 13]: 0.16
